From patent publication US6770649B2, “1-[1-(hetero)aryl-1-perhydroxyalkylmethyl]-piperazine compounds, process for their preparation and pharmaceutical compositions containing them” (Solvay Pharmaceuticals GmbH, priority 2001, dated 2004)
Read-outs that look alike come from different tables or passages of the source.

Assays:
NK-2 receptors [1] = molecular target: T1, NK-2 receptors (Cavia porcellus, UniProt Q64077); experiment: Functional NK-2 antagonism on isolated guinea pig gall-bladder preparations (NKA-induced contraction); format: cell-based; conditions: inhibition of contraction caused by NKA 0.1 μmol/l; two hours' incubation; Pirbright-White guinea pig gall-bladder
T1 construct: the NK-2 receptors present in the gall-bladder preparations; from tissue; host or cells: Pirbright-White guinea pig: isolated gall-bladder (A2); anaesthetised whole animal (A3)
T1 sequence (Q64077 1-402): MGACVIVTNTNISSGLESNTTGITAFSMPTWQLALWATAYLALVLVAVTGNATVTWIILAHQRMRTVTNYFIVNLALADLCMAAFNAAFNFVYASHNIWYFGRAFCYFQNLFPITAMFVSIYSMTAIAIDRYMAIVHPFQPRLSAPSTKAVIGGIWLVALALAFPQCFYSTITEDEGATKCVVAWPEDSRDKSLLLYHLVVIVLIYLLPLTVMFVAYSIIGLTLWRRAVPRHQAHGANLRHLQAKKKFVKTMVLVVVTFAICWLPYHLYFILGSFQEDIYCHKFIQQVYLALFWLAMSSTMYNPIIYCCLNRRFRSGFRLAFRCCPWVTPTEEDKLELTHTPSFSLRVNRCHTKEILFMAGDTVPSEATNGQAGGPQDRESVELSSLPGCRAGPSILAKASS
Protocol: 2. Determination of the Functional Antagonism of the Test Substances on Isolated Guinea Pig Tissue in vitro
The NK-2 receptor-antagonising action of the test substances was determined on isolated gall-bladder preparations from Pirbright-White guinea pigs, held in an oxygen-saturated nutrient solution. To this end, the preparations were fastened on one hand in the nutrient solution to organ holders and on the other hand on a force meter by a thread.
In this test the NK-2 receptors present in the gall-bladder preparations were stimulated with the natural NK-2 receptor agonist neurokinin A (=NKA; 0.1 μmol/l) and the contractions of the preparations caused thereby were measured as contractility in mN (=preliminary value) measured. Then NKA was rinsed out of the preparations with NKA-free solution and the test substances were added in a concentration of 10^−7 mol/l. After two hours' incubation of the preparations with the test substances, the contractions of the preparations then still caused by renewed NKA addition were again measured and the results were given as percentages, relative to the contractions initially measured, caused solely by NKA addition. The concentration of the test substances was increased iteratively in the subsequent experiments as a function of the result in logarithmic whole or half steps, until at least one concentration above or below 50% inhibition of contraction was determined (up to at most 10^−5 mol/l). For each concentration, the average value of inhibition of contraction was calculated from 2 to 4 preparations. In each case, the concentration of half-maximum inhibition (IC50) per test substance was calculated as characteristic variable. In each case the logarithmised value of the IC50 per test substance is given as pIC50 in [mol/l].

NK-2 receptors [2] = molecular target: T1, NK-2 receptors; experiment: NK-2-receptor-antagonistic effectiveness in vivo in anaesthetised guinea pigs (NKA test stimulus); parameters: species or system guinea pig; conditions: for NK-2-receptor-antagonistic activity of colon motility, late drop in blood pressure and respiratory resistance (in words): cumulative administration i.v., antagonism detected 1 min. after administration had ended
Description: 3. Determination of the NK-2-receptor-antagonistic Effectiveness of the Test Substances in vivo
The NK-2- and NK-1-antagonistic activities of the test substances were investigated in anaesthetised guinea pigs in each case after intravenous (=i.v.) and oral (=p.o.) administration in vivio. With the present test model it is possible to detect both NK-2-antagonistic effects in three different organ systems (respiratory tracts, colon and circulation) and NK-1-antagonistic effects (rapid drop in blood pressure) in an animal simultaneously.
Pirbright-White guinea pigs of a body weight of 500-700 g were anaesthetised with ketamine/xylazine (67/13 mg/kg subcutaneously, initial dose, further doses administered as required). The animals were provided with an intravenous catheter in order to administer the substance and an intra-arterial catheter to measure the blood pressure. The animals were artificially ventilated via a tracheal cannula and the respiratory pressure was recorded by means of a pressure transducer. A balloon was introduced into the distal colon of the animals for manometric recording of colon motility by means of a pressure transducer. Blood pressure, heart rate, respiratory pressure and colonic pressure were measured continuously for each animal and plotted on a recorder and by means of a digital data-processing system. Neurokinin A (=NKA; 200 pmol/animal) was administered i.v. as a bolus as a test stimulus to stimulate the NK-1- and the NK-2 receptors. An addition of NKA of this type results in a great increase in respiratory pressure (bronchoconstriction) and colonic pressure, and in a biphasic drop in blood pressure. The first phase of hypotension (=phase of maximum hypotension within the first minute after administration of NKA) is mediated via NK-1 receptors, since they can be blocked completely by specific NK-1 receptor antagonists. The second phase of delayed hypotension (=phase of maximum hypotension after 2-5 min.) on the other hand is mediated via NK-2 receptors, since they can be blocked by specific NK-2 receptor antagonists. The doses of the test substances are given as ED50 values which each result in a response to the NKA test stimulus which is reduced to 50% of the initial value, as characteristic variables for the individual measurement parameters bronchoconstriction, colonic pressure and change in blood pressure mediated by NK-1 or NK-2.
The antagonistic effects of the test substances were first investigated in cumulative form, the time of the NKA test stimulus being 1 min. after the administration of the respective doses of the test substances had ended. These ED50 values obtained from cumulative dose effect curves are plotted in Table 2 below. In order additionally to detect the variation over time of the antagonistic effects of the test substances, the action of the NKA test stimulus was determined at different times (1, 30, 60, 90, 120, 150 and 180 min.) after administration of the test substances.

[3] = guinea pig, iv, cumulative dosing, NKA stimulus 1 min. after administration, NK-2-mediated late drop in blood pressure, read-out: ED50 Blood pressure, i.v. after 1 min. (cumulative)
[4] = guinea pig, iv, cumulative dosing, NKA stimulus 1 min. after administration, respiratory resistance (bronchoconstriction), read-out: ED50 Respiratory resistance, i.v. after 1 min. (cumulative)
[5] = guinea pig, iv, cumulative dosing, NKA stimulus (200 pmol/animal i.v.) 1 min. after administration, colonic pressure, read-out: ED50 Colonic pressure, i.v. after 1 min. (cumulative)
[6] = guinea pig, iv, from AUC of antagonistic effect over 120 min after administration, colonic pressure, read-out: ED50 Colonic pressure, i.v. AUC over 120 min
[7] = guinea pig, iv, from AUC over 120 min after administration, NK-2-mediated drop in blood pressure, read-out: ED50 Blood pressure, i.v. AUC over 120 min
[8] = guinea pig, iv, from AUC over 120 min after administration, respiratory resistance, read-out: ED50 Respiratory resistance, i.v. AUC over 120 min
[9] = guinea pig, po, from AUC over 180 min after administration, NK-2-mediated drop in blood pressure, read-out: ED50 Blood pressure, p.o. AUC over 180 min.
[10] = guinea pig, po, from AUC over 180 min after administration, colonic pressure, read-out: ED50 Colonic pressure, p.o. AUC over 180 min.
[11] = guinea pig, po, from AUC over 180 min after administration, respiratory resistance, read-out: ED50 Respiratory resistance, p.o. AUC over 180 min.

Question: Which IC50 (NK-2 receptors [1]) does the source give for `CN(CC(CCN1CCN(C(c2ccco2)[C@H](O)[C@@H](O)[C@H](O)CO)CC1)c1ccc(Cl)c(Cl)c1)C(=O)c1ccccc1` (mixture of isomers) [Example 13] here?
Answer: 0.398 nM

Question: What about the “NK-2-receptor-antagonistic activity of colon motility, late drop in blood pressure and respiratory resistance (in words)” value (NK-2 receptors [2]) of the same molecule?
Answer: marked NK-2-receptor-antagonistic activity

Question: What about the ED50 (NK-2 receptors [2]; [3]) of the same molecule?
Answer: 0.08 µmol/kg

Question: What about the ED50 (NK-2 receptors [2]; [4]) of the same molecule?
Answer: 0.048 µmol/kg

Question: What about the ED50 (NK-2 receptors [2]; [5]) of the same molecule?
Answer: 0.019 µmol/kg

Question: What about the ED50 (NK-2 receptors [2]; [6]) of the same molecule?
Answer: 0.018 µmol/kg

Question: What about the ED50 (NK-2 receptors [2]; [7]) of the same molecule?
Answer: 0.025 µmol/kg

Question: What about the ED50 (NK-2 receptors [2]; [8]) of the same molecule?
Answer: 0.023 µmol/kg

Question: And the ED50 (NK-2 receptors [2]; [9])?
Answer: 24 µmol/kg

Question: And the ED50 (NK-2 receptors [2]; [10])?
Answer: 1.9 µmol/kg

Question: What about the ED50 (NK-2 receptors [2]; [11]) of the same molecule?
Answer: 2 µmol/kg

Question: How did the IC50 (NK-2 receptors [1]) turn out when `CN(C[C@@H](CCN1CCN(C(c2ccsc2)[C@H](O)[C@@H](O)[C@H](O)CO)CC1)c1ccc(Cl)c(Cl)c1)C(=O)c1ccccc1` (stereo partly drawn) [Example 1, N-((2S)-2-(3,4-dichlorophenyl)-4-{4-[(2S,3R,4R)-2,3,4,5-tetrahydroxy-1-(3-thienyl)pentyl]-1-piperazinyl}butyl)-N-methylbenzamide] was run?
Answer: 0.158 nM

Question: What about the “inhibition of the NK-2 mechanisms at the colon compared with bronchoconstrictive or hypotensive NK-2 effects (in words)” value (NK-2 receptors [2]; comparison of the Table 2 values) of the same molecule?
Answer: more effective inhibition of the NK-2 mechanisms at the colon (colon preference)

Question: What about the “NK-2-receptor-antagonistic activity of colon motility, late drop in blood pressure and respiratory resistance (in words)” value (NK-2 receptors [2]) of the same molecule?
Answer: marked NK-2-receptor-antagonistic activity

Question: What about the ED50 (NK-2 receptors [2]; [3]) of the same molecule?
Answer: 0.025 µmol/kg

Question: What about the ED50 (NK-2 receptors [2]; [4]) of the same molecule?
Answer: 0.033 µmol/kg

Question: And the ED50 (NK-2 receptors [2]; [5])?
Answer: 0.017 µmol/kg

Question: What about the ED50 (NK-2 receptors [2]; [6]) of the same molecule?
Answer: 0.0009 µmol/kg

Question: And the ED50 (NK-2 receptors [2]; [7])?
Answer: 0.006 µmol/kg

Question: And the ED50 (NK-2 receptors [2]; [8])?
Answer: 0.008 µmol/kg

Question: What about the ED50 (NK-2 receptors [2]; [9]) of the same molecule?
Answer: 2.7 µmol/kg

Question: And the ED50 (NK-2 receptors [2]; [10])?
Answer: 0.5 µmol/kg

Question: What about the ED50 (NK-2 receptors [2]; [11]) of the same molecule?
Answer: 1.8 µmol/kg

Question: And the “onset and duration of action (in words)” value (NK-2 receptors [2]; variation over time of the antagonistic effect, guinea pig)?
Answer: slow-onset action of long duration

Question: Which results are given for `CC(=O)OC[C@@H](OC(C)=O)[C@H](OC(C)=O)[C@@H](OC(C)=O)C(c1ccsc1)N1CCN(CC[C@H](CN(C)C(=O)c2ccccc2)c2ccc(Cl)c(Cl)c2)CC1` (some centres unmarked) [Example 14]?
Answer: IC50 (NK-2 receptors [1]): 2 nM; NK-2-receptor-antagonistic activity of colon motility, late drop in blood pressure and respiratory resistance (in words) (NK-2 receptors [2]): marked NK-2-receptor-antagonistic activity; ED50 (NK-2 receptors [2]; [3]): 0.063 µmol/kg; ED50 (NK-2 receptors [2]; [4]): 0.078 µmol/kg; ED50 (NK-2 receptors [2]; [5]): 0.042 µmol/kg; ED50 (NK-2 receptors [2]; [9]): 9.4 µmol/kg; ED50 (NK-2 receptors [2]; [10]): 3.2 µmol/kg; ED50 (NK-2 receptors [2]; [11]): 6.7 µmol/kg
